Results taken from article PMC9149975, “The diaryl-imidazopyridazine anti-plasmodial compound, MMV652103, exhibits anti-breast cancer activity” (EXCLI Journal, 2022).

Tests used:
MCF7 tumors = assay: Chick embryo CAM xenograft: tumor weight and metastasis; assay type: in vivo; conditions: 25 μM, every 48 h E10-E16, weighed E18
Protocol: All studies and procedures were conducted with prior approval of the Animal Ethics Committee of the University of Cape Town (FHS AEC REF NO:016/025) in accordance with the South African National Standard (SANS 10386:008) for the Care and Use of Animals for Scientific Purposes (SABS, 2015[71]), and guidelines from the Department of Health (2015[21]). Fertilized White Leghorn eggs were incubated at 37.5 °C with 50 % relative humidity for 9 days. At stage E9, the chorioallantoic membrane (CAM) was dropped by drilling a small hole through the eggshell into the air sac and a 1 cm^2 window was cut in the eggshell above the CAM. Cultured MCF7 cells were detached with trypsin, washed with complete medium and suspended in PBS. An inoculum of MCF7 cells was grafted onto the CAM of each E9 egg (21 eggs were used for each condition) and at E10, tumors were detectable. MCF7 tumors were treated every 48 h (E10, E12, E14, E16) by dropping 100 μl of vehicle (0.25 % DMSO in PBS), a reference compound (Paclitaxel), or MMV652103, onto the tumour. At E18 the upper portion of the CAM was removed, transferred to PBS and the tumors cut away from normal CAM tissue and weighed. A one-way ANOVA analysis with post-tests was done. In parallel, a 1 cm^2 portion of the lower CAM was collected to evaluate the number of metastatic cells. The relative amount of metastasis was calculated as follows: Tumor cells were grafted onto the upper chorioallantoic membrane (CAM) and during metastasis the cells invade the epithelium and basement membrane of the upper CAM and move through connective tissue into the vasculature into the lower CAM. The cells in the lower CAM are then harvested and genomic DNA is extracted and analyzed by qPCR with specific primers for Alu sequences which are only found in higher primates i.e. it allows for the distinction between human tumor cells and the host chick cells. Statistical analysis was directly performed on data from the Bio-Rad CFX Manager 3.1 software.

MCF7 cells = assay: GSH-Glo Glutathione assay; assay type: cell-based, human; conditions: MCF7, 24 h; MMV652103 ½ IC50 and IC50, doxorubicin IC50 (9.84 nM)
Protocol: The increase in ROS levels results in a decrease in the levels of antioxidants. To confirm the presence of intracellular ROS, the levels of the antioxidant, glutathione (GSH), was measured using the GSH-Glo™ Glutathione assay kit (V6911, Promega, Wisconsin, USA), according to the manufacturer's instructions. Briefly, cells (2500-4500 cells per well) were seeded in opaque 96 well plates. Cells were treated for 24 h with either vehicle or MMV652103. Thereafter, the cell culture medium was removed and 100 μl of 1X GSH-Glo™ Reagent (prepared using Luciferin-NT substrate and Glutathione S-Transferase each diluted 1:100 in GSH-Glo™ Reaction Buffer) was added to each well. The plate was then mixed briefly on a shaker and incubated for 10 min at RT. Thereafter, 100 μl reconstituted Luciferin Detection Reagent was added to each well. The plate was then incubated for 15 min RT in order to stabilize the luminescence signal. The plate was read using the GloMax® Explorer Multimode plate reader (Promega, Wisconsin, USA).

Row | Structure (SMILES) | tumor weight reduction (MCF7 tumors) [%] | levels of GSH (MCF7 cells)
1 | CC(=O)O[C@H]1C(=O)[C@@]2(C)[C@H]([C@H](OC(=O)c3ccccc3)[C@]3(O)C[C@H](OC(=O)[C@H](O)[C@@H](NC(=O)c4ccccc4)c4ccccc4)C(C)=C1C3(C)C)[C@]1(OC(C)=O)CO[C@@H]1C[C@@H]2O [Paclitaxel, reference compound] | 28.22 | –
2 | COc1cccc2c1C(=O)c1c(O)c3c(c(O)c1C2=O)C[C@@](O)(C(=O)CO)C[C@@H]3O[C@H]1C[C@H](N)[C@H](O)[C@H](C)O1 [Doxorubicin, reference compound] | – | significant decrease
